Literature values in PubChem BioAssay AID1259409 (Chemical Carcinogenesis Research Information System (CCRIS), 2018).

System: rodent chemically induced tumor inhibition, incidence and multiplicity
Assay: CCRIS tumor inhibitor studies
Conditions: Carcinogen: N-METHYL-N-NITROSOUREA, 684-93-5, Dose [Inhibitor]: 0, Route [Inhibitor]: ORAL, Species: RAT, Strain/Sex: SPRAGUE-DAWLEY/FEMALE, Target Tissue: Type of Lesion: MAMMARY GLAND: ADENOCARCINOMA, Dose [Carcinogen]: 45 MG/KG BW ONCE, Promoter: NONE USED

C=C/C(C)=C/C=C/C(C)=C/C=C1/C(C)=CCCC1(C)C
tumour outcome (control, treated, inhibition, significance) (67 MG/KG DIET FOR FOR 88 D BEGINNING 2 D POST CARCINOGEN DOSE (STUDY DURATION: 90 D)): 100%, 93%, 7%, not significant
tumour outcome (control, treated, inhibition, significance) (134 MG/KG DIET FOR 88 D BEGINNING 2 D POST CARCINOGEN DOSE (STUDY DURATION: 90 D)): 100%, 100%, 0%, not significant
tumour outcome (control, treated, inhibition, significance) (268 MG/KG DIET FOR 88 D BEGINNING 2 D POST CARCINOGEN DOSE (STUDY DURATION: 90 D)): 100%, 87%, 13%, p<0.05
tumour outcome (control, treated, inhibition, significance) (536 MG/KG DIET FOR 88 D BEGINNING 2 D POST CARCINOGEN DOSE (STUDY DURATION: 90 D)): 100%, 80%, 20%, p<0.05
